A short description of data set [1]: Blood level in the rat after one-time intravenous injection. The class given is in vivo. Particulars: one-time i.v. injection, Ultravist 300 mg I/kg, example 4c 200 mg I/kg, especially first 10 minutes, average of three animals, FIG. 1. As for the experimental part: The blood level in the rat was determined after one-time intravenous injection of 300 mg of I/kg of body weight of Ultravist®[]. and 200 mg of I/kg of body weight of the compound of example 4c [.diamond.]. The data represent the average value from three animals each.

A short description of data set [2]: Elimination from and retention in the body of the rat. In kind it is in vivo.

Consider `COCC(=O)Nc1c(I)c(C(=O)NCC(O)CO)c(I)c(C(=O)N(C)CC(O)CO)c1I` (centres unmarked) [Ultravist, reference compound], for which, in data set [1], the “blood concentration over time, standardized to the administered dose” value is recorded as “very much more quickly”.
For the compound “Octatetracontakis-{3-sodium carboxylatoformylamino-5-(2,3-dihydroxypropylcarbamoyl)-2,4,6-triiodobenzoyl} derivative of the lysine-alanine copolymer (K5)8 K4 K2 K-A--OH [Example 4]”, the “blood concentration over time, standardized to the administered dose” value in data set [1] is “remains very much longer in the blood space”. Besides, the route of elimination result in data set [2] is “mainly through the kidney”. Further, the “elimination from the body” value in data set [2] (dose 100 mg of I/kg) is recorded as “complete elimination”. In addition, the “retention in the organs liver, kidney and spleen as well as in the remainder of the body” value in data set [2] (dose 100 mg of I/kg, 14 days after administration) is reported as 0.36 % of the dose.

The values are drawn from patent publication US5756066A, “Iodine-containing peptides” (Schering Aktiengesellschaft, priority 1995, dated 1998).
